Source: US10996215B2, “Methods for determining drug efficacy for the treatment of diffuse large B-cell lymphoma, multiple myeloma, and myeloid cancers” (CELGENE CORPORATION, priority 2013, dated 2021)

Legend:
Aiolos, Ikaros = test: FFPE IHC for Aiolos and Ikaros in WSU-DLCL2 xenograft tumors; type: in vivo; conditions: WSU-DLCL2 xenograft SCID mice, 30 mg/kg qd
Procedure: WSU-DLCL2 xenograft SCID mice can be prepared using methods known in the art. In brief, female CB17 severe combined immunodeficiency (SCID) mice (6-12 weeks old) are obtained from the Charles River Laboratory (Wilmington, Mass.) and maintained in microisolator cages under sterile conditions. A total of 10×10^6 WSU-DLCL2 DLBCL cells in 100% Matrigel® (Becton Dickinson, San Jose, Calif.) are injected subcutaneously into the right flank of mice. Mice are monitored 2 or 3 times a week for the appearance of tumors.
WSU-DLCL2 xenograft SCID mice (a human tumor xenograft model) were treated with either vehicle or 30 mg/kg Compound A q.d. Tumor samples were harvested at 1 hour, 6 hours, or 24 hours after the last dose.
Immunohistochemistry was performed using standard methods. For example, immunohistochemistry is performed on the Bond-Max™ automated slide stainer (Leica Microsystems) using the associated Bond™ Polymer Refine Detection Kit. Four micron thick FFPE sections are deparaffinized on the instrument. Antigen retrieval is performed with Epitope Retrieval™ 2 (pH 9.0) for 20 minutes at 100° C. The slides are blocked for endogenous peroxidase activity with Peroxide Block for 5 minutes at room temperature. […]

[1] = system: DLBCL cell lines (GCB and ABC); test: tritiated thymidine incorporation proliferation assay; type: cell-based
Procedure: Cells were then cultured for 3 days at 37° C. Tritiated thymidine was applied to the cell culture for the final 6 hours and cells were then harvested onto filter plates. After the plates have dried, scintillation fluid was added to the plates and read on a Top-count reader.
The cells were then analyzed for proliferation using a ^3H-thymidine incorporation assay.
Proliferation was assessed through tritiated thymidine incorporation.

[2] = system: TMD8 (ABC) or Karpas 422 (GCB) cells; test: competition with lenalidomide for CRBN, 3H-thymidine proliferation; type: cell-based; conditions: TMD8 or Karpas 422; co-treatment with 10 μM lenalidomide; competition of binding to the CRBN complex
ABC-DLBCL cell line = test: Tandem Mass Tag proteomics, lenalidomide vs Compound A; type: cell-based; conditions: 24 h
Source text: Cells were harvested and proteins were fractionated using a basic pH reverse gradient method. Fractionated samples were labeled using a Tandem Mass Tag method.

ZFP91, Aiolos = test: Western blot of ZFP91 and Aiolos in OCI-LY10 cells; type: cell-based; conditions: OCI-LY10, 6 hrs
Source text: (§1) Cells were harvested with RIPA buffer, and proteins from cell lysates were separated by 10% sodium dodecyl sulfate polyacrylamide (SDS-PAGE) gel electrophoresis (Bio-Rad), and transferred to PVDF membranes (Invitrogen). Immunoblots were probed with antibodies recognizing Aiolos (9-9-7; Celgene), CK1α(Abcam), GSPT1 (Sigma), ZFP91 (LSBio) and β-actin (Li-Cor). Signals were detected with a Li-Cor Odyssey imager.
Immunoblots were probed with antibodies recognizing Aiolos (9-9-7; Celgene), GSPT1 (Sigma), ZFP91 (LSBio) and β-actin (Li-Cor). Signals were detected with a Li-Cor Odyssey imager.
as §1, with “OCI-LY10 cells treated with DMSO or various drugs for 6 hrs. Cells” for “Cells”, “buffer” for “buffer,”, “recognizing:” for “recognizing”
OCI-LY10 cells were then treated with DMSO or various drugs for 6 hrs. […] Cells were harvested with RIPA buffer and Proteins from cell lysates were separated by 10% sodium dodecyl sulfate polyacrylamide (SDS-PAGE) gel electrophoresis (Bio-Rad), and transferred to PVDF membranes (Invitrogen). Immunoblots were probed with antibodies recognizing: Aiolos (9-9-7; Celgene), ZFP91 (LSBio), ZNF198 (LSBio) and β-actin (Li-Cor). Signals were detected with a Li-Cor™ Odyssey imager.
OCI-LY10 cells stably transduced with shCRBN 11 were induced for 48 hrs with either 0 or 10 ng/ml of doxycycline. […] Where MLN4924 treatments were present, MLN4924 was pre-incubated for 1 hr prior to drug treatment. Cells were harvested with RIPA buffer and Proteins from cell lysates were separated by 10% sodium dodecyl sulfate polyacrylamide (SDS-PAGE) gel electrophoresis (Bio-Rad), and transferred to PVDF membranes (Invitrogen). Immunoblots were probed with antibodies recognizing: CRBN-65, Aiolos (9-9-7; Celgene), Ikaros (Millipore), ZFP91 (LSBio) and β-actin (Li-Cor). Signals were detected with a Li-Cor Odyssey imager.

Aiolos, Ikaros, ZFP91 = test: Western blot in myeloma, lymphoma and primary B cells; type: cell-based; conditions: U266, DF15, RPMI8226, OCI-LY10, WSU-DLCL2, WSU-DLCL2 Compound A resistant, primary B cells; 8 hours
Procedure: Multiple myeloma cells (U266, DF15, RPMI8226), diffuse large B cell lymphoma cells (OCI-LY10, WSU-DLCL2, WSU-DLCL2 Compound A resistant), and primary B cells were treated with DMSO, […] or […] for 8 hours. Cells were harvested and were treated in cell lysis buffer to generate cell lysates. Proteins from cell lysate were separated by gel electrophoresis (10% SDS-PAGE) and transferred to nitrocellulose membranes. Immunoblots were then probed with antibodies recognizing Aiolos, CRBN, Ikaros, ZFP91 (LSBio), IRF4, IRF7, Myc, and β-actin (Li-Cor).

[3] = 3 days, tritiated thymidine incorporation

Cc1nc2cccc(N)c2c(=O)n1C1CCC(=O)NC1=O (centres unmarked) [Compound A, 3-(5-amino-2-methyl-4-oxo-4H-quinazolin-3-yl)-piperidine-2,6-dione]
time to Aiolos and Ikaros degradation in tumor (Aiolos, Ikaros): ≤ 6 h
sensitivity of ABC DLBCL cell lines [1]: sensitive
activity in some GCB DLBCL compared to lenalidomide (proliferation) [1, 3]: Differential activity
potency in ABC DLBCL (proliferation) [1, 3]: more potent than lenalidomide
anti-proliferative effects on co-treatment with lenalidomide [2]: blocks anti-proliferative effects of Compound A
overall effect on protein abundance compared to lenalidomide (ABC-DLBCL cell line; 10 uM each, log2 ratios vs DMSO): generally stronger effect
gradient of regression line, log2 ratios of lenalidomide and Compound A plotted against each other (ABC-DLBCL cell line; 10 uM each, r2=0.752, intercept 0.03): 1.45
effect on CSNK1A1 protein (ABC-DLBCL cell line; ABC-DLBCL cell line, 10 uM, vs DMSO): does not appear to affect
levels of ZFP91 and Aiolos (ZFP91, Aiolos; 100 mM thalidomide, 10 mM lenalidomide, 1 mM pomalidomide, 1 μM or 10 μM Compound A, 100 nM Compound B, FIG. 17A): reduced
levels of ZFP91 and Aiolos (ZFP91, Aiolos; 1 or 10 μM lenalidomide, 0.1, 1 or 10 μM Compound A, FIG. 17B): reduced
levels of Aiolos, Ikaros, and ZFP91 (Aiolos, Ikaros, ZFP91): reduced
